Results on 7 molecules are retold here after patent US10851099B2, “Dipeptide piperidine derivatives” (OncoArendi Therapeutics S.A., priority 2018, dated 2020).

The target of experiment [1] is T1, recombinant human arginase 1 (Homo sapiens, UniProt P05089).
T1 construct: made in house; host or cells: E. coli
T1 sequence (P05089 1-322): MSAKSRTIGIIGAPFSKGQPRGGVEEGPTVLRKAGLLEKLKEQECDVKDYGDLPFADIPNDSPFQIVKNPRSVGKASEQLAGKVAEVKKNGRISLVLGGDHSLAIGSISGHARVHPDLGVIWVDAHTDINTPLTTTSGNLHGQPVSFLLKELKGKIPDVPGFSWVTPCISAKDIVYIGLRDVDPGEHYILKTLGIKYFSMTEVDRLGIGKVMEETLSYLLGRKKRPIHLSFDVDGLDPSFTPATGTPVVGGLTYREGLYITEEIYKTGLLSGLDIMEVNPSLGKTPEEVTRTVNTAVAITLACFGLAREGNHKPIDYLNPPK
As to the kind of experiment: Human arginase inhibition assay (colorimetric urea detection), arginase 1. The conditions noted are these: IC50 class, hydrochloride salts, 1 h at 37° C., pH 7.4, 10 mM L-arginine, 200 μM MnCl2, read-out: Activity Class (ARG I). In kind it is biochemical. How it is done: (§1) The inhibitory activities of the compounds of the invention were assessed using recombinant human arginase 1 and 2. Both enzymes were biosynthesized using a prokaryotic expression system (E. coli) and purified by fast protein liquid chromatography (FPLC). The compounds were screened in 96-well plates at the total reaction volume of 100 μL. Briefly, recombinant enzymes were incubated with the tested compounds for 1 h at 37° C. in the reaction buffer (100 mM sodium phosphate buffer, 130 mM NaCl, 1 mg/mL BSA, pH 7.4) containing substrate (10 mM L-arginine hydrochloride) and cofactor (200 μM MnCl2). The assay is based on the detection of urea, which is generated during the conversion of L-arginine into L-ornithine catalyzed by ARG1 or ARG2. The colorimetrically detectable product was developed by adding a mixture of reagent A (4 mM oPA, 50 mM boric acid, 1 M sulfuric acid, 0.03% Brij-35) and reagent B (4 mM NED, 50 mM boric acid, 1 M sulfuric acid, 0.03% Brij-35) in equal proportions. The absorbance for each well was measured at 515 nm and the enzyme inhibition was calculated. The urea production in the absence of any tested compound was considered as maximal enzyme activity. The absorbance at the absence of arginase (background) was subtracted from all the values. Normalized values were analyzed using GraphPad Prism 7.0 software by plotting inhibition curves and determining the IC50 values.
(§2) The inhibitory activity toward humane arginase 1 of the hydrochloride salts of the exemplary compounds according to the invention is presented in Table 5.

Experiment [2] concerns the target T2, recombinant human arginase 2 (Homo sapiens, UniProt P78540).
T2 construct: made in house; host or cells: E. coli
T2 sequence (P78540 23-354): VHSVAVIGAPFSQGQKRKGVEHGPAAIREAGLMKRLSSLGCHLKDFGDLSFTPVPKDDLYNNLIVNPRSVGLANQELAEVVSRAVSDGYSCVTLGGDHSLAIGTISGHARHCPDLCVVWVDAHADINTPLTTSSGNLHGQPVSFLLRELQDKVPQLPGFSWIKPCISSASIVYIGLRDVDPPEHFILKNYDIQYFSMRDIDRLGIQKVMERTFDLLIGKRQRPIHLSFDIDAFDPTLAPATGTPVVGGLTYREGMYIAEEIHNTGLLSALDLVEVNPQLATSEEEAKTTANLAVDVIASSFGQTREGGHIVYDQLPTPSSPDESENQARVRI
As to the kind of experiment: Human arginase inhibition assay (colorimetric urea detection), arginase 2. The conditions noted are these: IC50 class, hydrochloride salts, 1 h at 37° C., pH 7.4, 10 mM L-arginine, 200 μM MnCl2, read-out: Activity Class (ARG II). It is filed as biochemical. How it is done: as §1, §2
The inhibitory activity toward humane arginase 2 of the hydrochloride salts of the selected exemplary compounds according to the invention is presented in Table 6.

Structures can show the parent of a compound that is named as a salt.

As to `N=C(N)NCCC[C@H](N)C(=O)N1C[C@@H](CCB(O)O)C[C@](N)(C(=O)O)C1` [Example 20, (3R,5S)-1-(L-Arginyl)-3-amino-5-(2-boronoethyl)piperidine-3-carboxylic acid trihydrochloride], the IC50 lay in the range of 1 to 249 nM in experiment [1] and 250 to 499 nM in experiment [2].
Taken in the same sequence, the figures for `N[C@@H](CO)C(=O)N1C[C@@H](CCB(O)O)C[C@](N)(C(=O)O)C1` [Example 6, (3R,5S)-1-(L-Seryl)-3-amino-5-(2-boronoethyl)piperidine-3-carboxylic acid dihydrochloride] were 1 to 249 nM and 500 to 999 nM.
In the case of `C[C@H](N)C(=O)N1C[C@@H](CCB(O)O)C[C@](N)(C(=O)O)[C@@H]1C` [Example 30, (2S,3R,5S)-1-(L-alanyl)-3-amino-5-(2-boronoethyl)-2-methylpiperidine-3-carboxylic acid dihydrochloride], the IC50 in experiment [1] was 1 to 249 nM; in experiment [2], 500 to 999 nM.
In the case of `C[C@H](N)C(=O)N1C[C@@H](CCB(O)O)C[C@](N)(C(=O)O)C1` [Example 1, (3R,5S)-1-(L-Alanyl)-3-amino-5-(2-boronoethyl)piperidine-3-carboxylic acid dihydrochloride], the IC50 is 250 to 499 nM in experiment [1] and 500 to 999 nM in experiment [2].
Taken in the same sequence, the figures for `NCCCC[C@H](N)C(=O)N1C[C@@H](CCB(O)O)C[C@](N)(C(=O)O)C1` [Example 7, (3R,5S)-1-(L-Lysyl)-3-amino-5-(2-boronoethyl)piperidine-3-carboxylic acid trihydrochloride] were 1 to 249 nM and 500 to 999 nM.
Taken in the same sequence, the figures for `NCC(=O)N1C[C@@H](CCB(O)O)C[C@](N)(C(=O)O)C1` [Example 3, (3R,5S)-3-Amino-5-(2-boronoethyl)-1-glycylpiperidine-3-carboxylic acid dihydrochloride] were 1 to 249 nM and 500 to 999 nM.
Take `N[C@@H](Cc1c[nH]cn1)C(=O)N1C[C@@H](CCB(O)O)C[C@](N)(C(=O)O)C1` [Example 13, (3R,5S)-1-(L-Histidyl)-3-amino-5-(2-boronoethyl)piperidine-3-carboxylic acid trihydrochloride]: the IC50 in experiment [1] lay within 1 to 249 nM; in experiment [2] it was 500 to 999 nM.
